Results from ChEMBL document CHEMBL4052645, “Discovery of potent and efficacious pyrrolopyridazines as dual JAK1/3 inhibitors” (Bioorg Med Chem Lett, 2017).

What was measured:
[1] = molecular target: T1, Tyrosine-protein kinase JAK3 (Homo sapiens, UniProt P52333); assay: Inhibition of JAK3 (unknown origin) using CSKtide as substrate after 30 mins in presence of [gamma33P]ATP by liquid scintillation counting method
T1 sequence (P52333 whole entry): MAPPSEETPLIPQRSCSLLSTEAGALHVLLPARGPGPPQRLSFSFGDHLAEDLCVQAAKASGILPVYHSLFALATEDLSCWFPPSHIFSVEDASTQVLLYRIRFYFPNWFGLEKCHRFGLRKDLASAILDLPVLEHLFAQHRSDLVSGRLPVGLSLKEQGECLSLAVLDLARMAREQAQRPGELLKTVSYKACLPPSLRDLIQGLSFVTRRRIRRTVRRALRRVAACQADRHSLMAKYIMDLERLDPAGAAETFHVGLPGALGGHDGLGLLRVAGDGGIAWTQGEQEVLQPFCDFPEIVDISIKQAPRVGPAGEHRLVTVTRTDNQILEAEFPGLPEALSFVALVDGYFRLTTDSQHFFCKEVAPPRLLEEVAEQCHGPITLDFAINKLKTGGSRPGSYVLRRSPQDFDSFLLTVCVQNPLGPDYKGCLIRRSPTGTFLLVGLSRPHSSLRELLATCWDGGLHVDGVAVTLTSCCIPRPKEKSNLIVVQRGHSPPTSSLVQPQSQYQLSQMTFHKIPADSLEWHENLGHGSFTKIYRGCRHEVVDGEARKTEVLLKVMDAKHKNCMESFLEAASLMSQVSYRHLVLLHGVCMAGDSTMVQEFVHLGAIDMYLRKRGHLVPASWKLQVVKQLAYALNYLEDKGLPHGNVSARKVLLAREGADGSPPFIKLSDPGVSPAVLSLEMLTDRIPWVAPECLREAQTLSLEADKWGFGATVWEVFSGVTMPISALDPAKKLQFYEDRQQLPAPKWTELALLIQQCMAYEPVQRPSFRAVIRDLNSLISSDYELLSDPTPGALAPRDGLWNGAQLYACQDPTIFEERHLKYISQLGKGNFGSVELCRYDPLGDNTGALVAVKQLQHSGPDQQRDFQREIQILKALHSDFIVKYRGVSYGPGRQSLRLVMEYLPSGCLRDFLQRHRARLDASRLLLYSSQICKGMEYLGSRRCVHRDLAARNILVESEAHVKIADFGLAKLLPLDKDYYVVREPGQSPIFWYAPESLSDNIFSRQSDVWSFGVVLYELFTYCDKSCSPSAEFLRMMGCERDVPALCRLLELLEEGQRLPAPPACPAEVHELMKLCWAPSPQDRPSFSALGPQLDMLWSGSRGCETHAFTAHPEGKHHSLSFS

[2] = molecular target: Serine/threonine-protein kinase 3 (Homo sapiens) (UniProt Q13188); assay: Inhibition of human MST2 (D17 to E318 residues) expressed in bacterial expression system assessed as residual activity at 50 nM by KINOMEscan assay relative to control
[3] = molecular target: Platelet-derived growth factor receptor beta (Homo sapiens) (UniProt P09619); assay: Inhibition of wild-type human partial length PDGFRB (V582 to Y1009 residues) expressed in bacterial expression system assessed as residual activity at 50 nM by Kinomescan method relative to control
[4] = molecular target: Serine/threonine-protein kinase RIO2 (Homo sapiens) (UniProt Q9BVS4); assay: Inhibition of wild-type human partial length RIOK2 (M1 to D313 residues) expressed in mammalian expression system assessed as residual activity at 50 nM by Kinomescan method relative to control
[5] = molecular target: Protein kinase C epsilon type (Homo sapiens) (UniProt Q02156); assay: Inhibition of wild-type human partial length PKCE (A378 to P737 residues) expressed in mammalian expression system assessed as residual activity at 50 nM by Kinomescan method relative to control
[6] = molecular target: Serine/threonine-protein kinase ICK (Homo sapiens) (UniProt Q9UPZ9); assay: Inhibition of wild-type human partial length ICK (M1 to P314 residues) expressed in mammalian expression system assessed as residual activity at 50 nM by Kinomescan method relative to control
[7] = molecular target: Mitogen-activated protein kinase kinase kinase kinase 1 (Homo sapiens) (UniProt Q92918); assay: Inhibition of wild-type human full length HPK1 (M1 to R799 residues) expressed in bacterial expression system assessed as residual activity at 50 nM by Kinomescan method relative to control
[8] = molecular target: Atypical kinase COQ8B, mitochondrial (Homo sapiens) (UniProt Q96D53); assay: Inhibition of wild-type human full length ADCK4 (M1 to S544 residues) expressed in bacterial expression system assessed as residual activity at 50 nM by Kinomescan method relative to control
[9] = molecular target: Mitogen-activated protein kinase 3 (Homo sapiens) (UniProt P27361); assay: Inhibition of wild-type human full length ERK1 (M1 to P379 residues) expressed in bacterial expression system assessed as residual activity at 50 nM by Kinomescan method relative to control
[10] = molecular target: Serine/threonine-protein kinase PLK1 (Homo sapiens) (UniProt P53350); assay: Inhibition of wild-type human partial length PLK1 (A33 to F325 residues) expressed in mammalian expression system assessed as residual activity at 50 nM by Kinomescan method relative to control
[11] = molecular target: Calcium/calmodulin-dependent protein kinase type II subunit delta (Homo sapiens) (UniProt Q13557); assay: Inhibition of wild-type human partial length CAMK2D (M1 to E329 residues) expressed in bacterial expression system assessed as residual activity at 50 nM by Kinomescan method relative to control
[12] = molecular target: Cyclin-dependent kinase 4/cyclin D1 (Homo sapiens) (UniProt P11802+P24385); assay: Inhibition of wild-type human full length CDK4/cyclinD1 (M1 to E303 residues) expressed in mammalian expression system assessed as residual activity at 50 nM by Kinomescan method relative to control
[13] = molecular target: Ephrin type-A receptor 5 (Homo sapiens) (UniProt P54756); assay: Inhibition of wild-type human partial length EPHA5 (T627 to V930 residues) expressed in bacterial expression system assessed as residual activity at 50 nM by Kinomescan method relative to control
[14] = molecular target: Mitogen-activated protein kinase 12 (Homo sapiens) (UniProt P53778); assay: Inhibition of wild-type human full length p38-gamma (M1 to L367 residues) expressed in mammalian expression system assessed as residual activity at 50 nM by Kinomescan method relative to control
[15] = molecular target: Proto-oncogene tyrosine-protein kinase receptor Ret (Homo sapiens) (UniProt P07949); assay: Inhibition of wild-type human partial length RET (E713 to D1014 residues) expressed in bacterial expression system assessed as residual activity at 50 nM by Kinomescan method relative to control
[16] = molecular target: SNF-related serine/threonine-protein kinase (Homo sapiens) (UniProt Q9NRH2); assay: Inhibition of wild-type human partial length SNRK (M1 to E339 residues) expressed in mammalian expression system assessed as residual activity at 50 nM by Kinomescan method relative to control
[17] = molecular target: Non-receptor tyrosine-protein kinase TYK2 (Homo sapiens, UniProt P29597); assay: Inhibition of wild-type human partial length TYK2 JH2 pseudokinase domain (G556 to D888 residues) expressed in mammalian expression system assessed as residual activity at 50 nM by Kinomescan method relative to control

Chain of Serine/threonine-protein kinase PLK1 (Homo sapiens) (P53350 whole entry, the tested form may be a part): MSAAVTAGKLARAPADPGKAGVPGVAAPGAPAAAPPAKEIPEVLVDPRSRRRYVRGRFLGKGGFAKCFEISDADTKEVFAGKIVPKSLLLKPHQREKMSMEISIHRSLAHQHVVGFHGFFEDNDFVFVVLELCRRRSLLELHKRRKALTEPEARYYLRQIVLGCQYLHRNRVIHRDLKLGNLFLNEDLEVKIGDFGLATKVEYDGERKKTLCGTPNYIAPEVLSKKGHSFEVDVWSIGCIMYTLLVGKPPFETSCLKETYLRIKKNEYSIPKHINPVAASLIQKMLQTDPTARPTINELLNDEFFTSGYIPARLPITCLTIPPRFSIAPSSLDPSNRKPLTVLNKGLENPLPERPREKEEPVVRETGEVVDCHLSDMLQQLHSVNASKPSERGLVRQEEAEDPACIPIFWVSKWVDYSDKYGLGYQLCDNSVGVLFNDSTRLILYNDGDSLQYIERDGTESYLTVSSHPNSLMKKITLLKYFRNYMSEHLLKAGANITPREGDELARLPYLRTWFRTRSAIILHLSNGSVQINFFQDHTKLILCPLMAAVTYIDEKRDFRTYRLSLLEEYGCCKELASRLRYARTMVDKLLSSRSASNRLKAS
Chain of Platelet-derived growth factor receptor beta (Homo sapiens) (P09619 whole entry, the tested form may be a part): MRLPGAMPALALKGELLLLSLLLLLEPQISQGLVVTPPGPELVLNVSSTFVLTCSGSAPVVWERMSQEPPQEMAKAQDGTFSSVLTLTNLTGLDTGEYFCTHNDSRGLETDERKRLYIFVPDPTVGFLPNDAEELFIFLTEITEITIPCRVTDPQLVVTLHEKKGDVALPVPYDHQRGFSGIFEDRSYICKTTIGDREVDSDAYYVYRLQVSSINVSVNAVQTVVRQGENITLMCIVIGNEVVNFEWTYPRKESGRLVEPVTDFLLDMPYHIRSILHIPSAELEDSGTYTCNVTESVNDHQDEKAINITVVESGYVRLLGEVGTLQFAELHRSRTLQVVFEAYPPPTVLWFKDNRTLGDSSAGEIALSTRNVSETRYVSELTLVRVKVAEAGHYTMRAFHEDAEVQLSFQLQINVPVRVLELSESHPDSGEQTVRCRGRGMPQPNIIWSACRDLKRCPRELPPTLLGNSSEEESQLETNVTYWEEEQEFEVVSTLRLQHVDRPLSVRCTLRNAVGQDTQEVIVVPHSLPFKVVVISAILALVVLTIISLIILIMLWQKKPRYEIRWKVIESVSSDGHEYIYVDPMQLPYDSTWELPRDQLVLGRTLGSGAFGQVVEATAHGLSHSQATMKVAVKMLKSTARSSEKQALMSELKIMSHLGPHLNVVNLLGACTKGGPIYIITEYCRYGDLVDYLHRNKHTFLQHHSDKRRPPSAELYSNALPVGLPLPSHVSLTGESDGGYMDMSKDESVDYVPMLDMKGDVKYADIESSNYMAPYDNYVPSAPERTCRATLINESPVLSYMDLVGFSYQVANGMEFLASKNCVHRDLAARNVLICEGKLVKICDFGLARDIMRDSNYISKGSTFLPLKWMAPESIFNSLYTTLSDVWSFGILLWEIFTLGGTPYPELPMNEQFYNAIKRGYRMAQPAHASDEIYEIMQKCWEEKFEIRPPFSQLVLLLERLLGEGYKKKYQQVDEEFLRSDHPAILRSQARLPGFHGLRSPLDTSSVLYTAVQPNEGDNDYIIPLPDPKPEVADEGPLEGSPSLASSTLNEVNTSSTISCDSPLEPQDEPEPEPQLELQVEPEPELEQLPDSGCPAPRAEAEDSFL
Chain of Atypical kinase COQ8B, mitochondrial (Homo sapiens) (Q96D53 whole entry, the tested form may be a part): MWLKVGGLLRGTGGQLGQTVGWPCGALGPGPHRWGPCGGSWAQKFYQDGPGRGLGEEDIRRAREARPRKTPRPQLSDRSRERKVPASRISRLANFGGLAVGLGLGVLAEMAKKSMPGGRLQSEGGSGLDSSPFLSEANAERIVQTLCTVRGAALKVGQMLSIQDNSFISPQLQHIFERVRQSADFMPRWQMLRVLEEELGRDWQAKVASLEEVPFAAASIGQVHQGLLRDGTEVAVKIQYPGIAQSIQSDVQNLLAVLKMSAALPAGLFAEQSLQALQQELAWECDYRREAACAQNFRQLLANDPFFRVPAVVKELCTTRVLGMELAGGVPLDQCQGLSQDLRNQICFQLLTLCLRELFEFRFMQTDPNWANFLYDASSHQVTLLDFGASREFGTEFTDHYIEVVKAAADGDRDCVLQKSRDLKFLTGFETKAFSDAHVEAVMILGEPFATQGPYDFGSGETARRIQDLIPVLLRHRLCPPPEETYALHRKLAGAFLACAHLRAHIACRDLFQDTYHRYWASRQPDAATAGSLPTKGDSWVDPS
Chain of Serine/threonine-protein kinase 3 (Homo sapiens) (Q13188 whole entry, the tested form may be a part): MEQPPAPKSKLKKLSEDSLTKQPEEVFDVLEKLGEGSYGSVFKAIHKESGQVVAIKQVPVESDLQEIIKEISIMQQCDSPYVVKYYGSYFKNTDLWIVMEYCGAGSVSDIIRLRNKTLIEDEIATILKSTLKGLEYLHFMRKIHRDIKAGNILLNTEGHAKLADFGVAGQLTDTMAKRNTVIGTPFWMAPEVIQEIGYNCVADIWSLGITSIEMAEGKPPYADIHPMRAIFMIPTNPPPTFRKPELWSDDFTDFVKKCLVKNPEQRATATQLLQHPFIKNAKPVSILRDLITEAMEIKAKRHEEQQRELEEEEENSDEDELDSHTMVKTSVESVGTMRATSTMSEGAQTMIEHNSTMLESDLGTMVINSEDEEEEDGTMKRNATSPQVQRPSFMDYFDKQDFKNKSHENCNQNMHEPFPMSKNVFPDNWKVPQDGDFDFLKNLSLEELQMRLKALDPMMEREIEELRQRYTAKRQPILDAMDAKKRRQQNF
Chain of Serine/threonine-protein kinase RIO2 (Homo sapiens) (Q9BVS4 whole entry, looked up, the tested form may be a part): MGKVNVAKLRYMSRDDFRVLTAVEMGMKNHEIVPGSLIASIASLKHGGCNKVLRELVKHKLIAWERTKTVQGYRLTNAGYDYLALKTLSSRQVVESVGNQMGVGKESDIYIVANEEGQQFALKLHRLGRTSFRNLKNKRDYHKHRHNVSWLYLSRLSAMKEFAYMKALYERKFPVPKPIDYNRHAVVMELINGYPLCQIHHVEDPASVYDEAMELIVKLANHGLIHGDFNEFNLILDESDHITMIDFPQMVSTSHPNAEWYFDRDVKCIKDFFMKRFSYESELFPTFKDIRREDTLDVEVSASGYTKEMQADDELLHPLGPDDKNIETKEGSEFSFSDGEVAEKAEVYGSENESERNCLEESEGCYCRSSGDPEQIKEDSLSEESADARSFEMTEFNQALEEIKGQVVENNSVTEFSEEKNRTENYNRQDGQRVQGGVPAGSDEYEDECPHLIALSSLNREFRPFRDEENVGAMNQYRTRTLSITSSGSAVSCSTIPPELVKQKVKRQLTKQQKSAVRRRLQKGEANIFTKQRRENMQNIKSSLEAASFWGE
Chain of Mitogen-activated protein kinase kinase kinase kinase 1 (Homo sapiens) (Q92918 whole entry, looked up, the tested form may be a part): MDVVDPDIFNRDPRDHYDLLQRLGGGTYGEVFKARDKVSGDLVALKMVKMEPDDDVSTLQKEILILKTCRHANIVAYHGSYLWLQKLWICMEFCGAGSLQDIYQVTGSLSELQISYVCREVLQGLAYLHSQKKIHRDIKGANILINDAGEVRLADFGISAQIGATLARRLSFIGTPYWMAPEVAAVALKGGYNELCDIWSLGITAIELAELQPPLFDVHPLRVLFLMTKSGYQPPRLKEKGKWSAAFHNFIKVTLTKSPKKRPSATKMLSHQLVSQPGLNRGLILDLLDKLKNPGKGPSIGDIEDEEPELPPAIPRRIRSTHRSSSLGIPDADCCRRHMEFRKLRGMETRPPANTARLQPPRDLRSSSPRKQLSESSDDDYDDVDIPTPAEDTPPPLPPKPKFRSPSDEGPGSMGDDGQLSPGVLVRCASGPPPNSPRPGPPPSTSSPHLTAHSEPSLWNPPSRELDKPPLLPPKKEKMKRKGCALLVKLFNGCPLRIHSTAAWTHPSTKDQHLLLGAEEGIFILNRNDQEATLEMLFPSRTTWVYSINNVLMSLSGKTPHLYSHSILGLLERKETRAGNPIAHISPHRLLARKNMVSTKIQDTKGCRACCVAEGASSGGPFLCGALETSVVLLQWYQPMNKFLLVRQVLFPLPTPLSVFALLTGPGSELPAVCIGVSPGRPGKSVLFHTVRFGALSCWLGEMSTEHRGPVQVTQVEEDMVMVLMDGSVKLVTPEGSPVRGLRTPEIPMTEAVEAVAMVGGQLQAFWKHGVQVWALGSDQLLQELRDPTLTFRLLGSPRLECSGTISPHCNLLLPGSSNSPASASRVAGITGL
Chain of Mitogen-activated protein kinase 3 (Homo sapiens) (P27361 whole entry, the tested form may be a part): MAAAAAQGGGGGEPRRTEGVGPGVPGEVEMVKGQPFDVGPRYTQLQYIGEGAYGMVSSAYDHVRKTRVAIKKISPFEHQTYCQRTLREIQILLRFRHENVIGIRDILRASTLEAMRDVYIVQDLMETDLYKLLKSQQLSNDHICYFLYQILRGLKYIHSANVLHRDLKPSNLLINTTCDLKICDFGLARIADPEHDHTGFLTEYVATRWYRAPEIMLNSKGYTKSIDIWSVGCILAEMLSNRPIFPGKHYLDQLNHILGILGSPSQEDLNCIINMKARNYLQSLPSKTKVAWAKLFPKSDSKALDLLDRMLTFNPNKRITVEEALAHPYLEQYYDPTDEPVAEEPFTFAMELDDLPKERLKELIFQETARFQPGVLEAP
Chain of Mitogen-activated protein kinase 12 (Homo sapiens) (P53778 whole entry, the tested form may be a part): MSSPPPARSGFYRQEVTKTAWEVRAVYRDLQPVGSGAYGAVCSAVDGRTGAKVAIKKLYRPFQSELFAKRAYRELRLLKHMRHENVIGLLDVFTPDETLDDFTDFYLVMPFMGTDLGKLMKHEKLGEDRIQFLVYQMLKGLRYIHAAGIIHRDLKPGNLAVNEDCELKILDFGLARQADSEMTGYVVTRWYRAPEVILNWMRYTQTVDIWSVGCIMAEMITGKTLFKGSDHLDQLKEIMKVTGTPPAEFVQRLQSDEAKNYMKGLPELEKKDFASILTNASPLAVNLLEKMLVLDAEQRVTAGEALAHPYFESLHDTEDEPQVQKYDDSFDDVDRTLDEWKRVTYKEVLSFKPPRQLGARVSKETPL

SMILES | IC50 [1] [nM] | Activity [2] [%] | Activity [3] [%] | Activity [4] [%] | Activity [5] [%] | Activity [6] [%] | Activity [7] [%] | Activity [8] [%] | Activity [9] [%] | Activity [10] [%] | Activity [11] [%] | Activity [12] [%] | Activity [13] [%] | Activity [14] [%] | Activity [15] [%] | Activity [16] [%] | Activity [17] [%]
COc1ccc(-c2cc3c(N[C@@H]4CC[C@](C)(N)C4(C)C)c(C(N)=O)cnn3c2)cn1 | 0.9 | 6 | 64 | 99 | 72 | 100 | 70 | 100 | 100 | 100 | 100 | 97 | 100 | 100 | 92 | 92 | 100
CC1(C)[C@H](Nc2c(C(N)=O)cnn3cc(-c4ccccc4)cc23)CC[C@]1(C)N | 0.9 | 6.2 | 19 | 50 | 58 | 64 | 66 | 91 | 93 | 94 | 100 | 100 | 100 | 100 | 100 | 100 | 100
